Values after ≈ are worked out from the molar mass of the structure shown. Like-named read-outs stand apart in the source and are kept apart here. *1 amine or outer side, *2 acyl side, *3 side chain or, on linkers, in order; H or OH if unused. Where a SMILES comes first, the peptide text is derived from it. Bridges are numbered along the chain shown (N, C = ends). [ ]: non-standard residue; d: D form. The star is where a group is joined. hTyr(3S-OH,4S-OH,3'-OSO3H) = N[C@H](C(=O)O)[C@H](O)[C@@H](O)c1ccc(O)c(OS(=O)(=O)O)c1; pTerphenylCO(4''-OnC5H11) = CCCCCOc1ccc(-c2ccc(-c3ccc(C(=O)*)cc3)cc2)cc1; Orn(4R-OH,5R-OH) = O=C([C@H](C[C@@H](O)[C@@H](O)N[*:3])N[*:1])[*:2]; hTyr(3S-OH,4S-OH) = N[C@H](C(=O)O)[C@H](O)[C@@H](O)c1ccc(O)cc1; Pro(3S-OH,4S-Me) = C[C@H]1CN[C@H](C(=O)O)[C@H]1O; X1 = CCCCCOc1ccc(-c2cc(-c3ccc(C(=O)*)cc3)no2)cc1; Gln(3R-OH) = NC(=O)C[C@@H](O)[C@H](N)C(=O)O; Hyp = O=C(O)[C@@H]1C[C@@H](O)CN1
Legend:
Candida albicans v47a3 = assay: Sensitivity to conventional antimycotics, broth dilution method; format: cell-based
Text: The clinical isolate of Candida albicans (v47a3) was collected from the patient with human immunodeficiency virus (HIV) infection and mucosal candidiasis and provided by G.N. Gabrichevsky Research Institute for Epidemiology and Microbiology (Moscow, Russia). This strain was susceptible to conventional antifungal agents except for a slight increase in the minimal inhibitory concentrations for triazole derivatives as was shown using the broth dilution method according to [31] (Supporting Materials, Tables S2 and S3). Strain stock was kept at −70 °C in 10% non-fat milk with 10% glycerol. Melittin (>98% pure) synthesized using a standard solid-phase method was provided by Dr. Sergey V. Sychev in M.M. Shemyakin and Yu.A. Ovchinnikov Institute of Bioorganic Chemistry of the Russian Academy of Sciences (Moscow, Russia).

Caco-2 cells = details: known model substrates of efflux pumps; no reference given; cited from earlier work
[1] = system: human peripheral blood mononuclear cells (PBMCs); assay: Resazurin-based cell cytotoxicity assay; details: PBMCs, 24 h, read-out: concentration inducing 50% cell death
Procedure: The cytotoxic properties of the pea defensin Psd1 were investigated by resazurin-based cell cytotoxicity assay as previously described. In brief, PBMCs were seeded in 96-well plates at 2 × 10^6 cells per well in RPMI-1640 supplemented with 10% FBS and kept in a CO2 incubator for 24 h. After this, serial two-fold dilutions of defensin in a complete culture medium were added to the wells at final concentrations from 0.2 to 50 μM and the plates were incubated for 24 h. Resazurin (Sigma) was added at a final concentration of 70 µM, and the plates were incubated overnight (16–18 h). Fluorescent resorufin was registered using a 535/595 filter at PlateReader AF2200 (Eppendorf). Untreated cells were used as negative controls. Non-ionogenic detergent Triton X-100 and membrane-active peptide melittin from honeybee venom were used as positive controls. The cell viability was calculated according to the following equation: cell viability (%) = (Fsample/Fcontrol) × 100%. Cell lysis was monitored with an Olympus CKX41 microscope.

[2] = V47A3, MIC = 50% growth inhibition, broth dilution according to EUCAST E.DEF 7.3.2, read-out: MICs

CCCCCOc1ccc(-c2cc(-c3ccc(C(=O)N[C@H]4C[C@@H](O)[C@@H](O)NC(=O)[C@@H]5[C@@H](O)[C@@H](C)CN5C(=O)[C@H]([C@H](O)CC(N)=O)NC(=O)[C@H]([C@H](O)[C@@H](O)c5ccc(O)c(OS(=O)(=O)O)c5)NC(=O)[C@@H]5C[C@@H](O)CN5C(=O)[C@H]([C@@H](C)O)NC4=O)cc3)no2)cc1 [Micafungin] (X1-[Orn(4R-OH,5R-OH)]T[Hyp][hTyr(3S-OH,4S-OH,3'-OSO3H)][Gln(3R-OH)][Pro(3S-OH,4S-Me)]; lactam 1-C)
MIC (Candida albicans v47a3; V47A3, read-out: MICs): 0.008 µg/mL (≈ 0.0063 µM)

C[C@H]1O[C@@H](O[C@H]2[C@@H](O)C[C@H](O[C@H]3[C@@H](O)C[C@H](O[C@H]4CC[C@@]5(C)[C@H](CC[C@@H]6[C@@H]5C[C@@H](O)[C@]5(C)[C@@H](C7=CC(=O)OC7)CC[C@]65O)C4)O[C@@H]3C)O[C@@H]2C)C[C@H](O)[C@@H]1O [digoxin]
efflux ratio (ER) (Caco-2 cells): > 10

CCCCCOc1ccc(-c2ccc(-c3ccc(C(=O)N[C@H]4C[C@@H](O)[C@@H](O)NC(=O)[C@@H]5[C@@H](O)[C@@H](C)CN5C(=O)[C@H]([C@@H](C)O)NC(=O)[C@H]([C@H](O)[C@@H](O)c5ccc(O)cc5)NC(=O)[C@@H]5C[C@@H](O)CN5C(=O)[C@H]([C@@H](C)O)NC4=O)cc3)cc2)cc1 [Anidulafungin] ({pTerphenylCO(4''-OnC5H11)}-[Orn(4R-OH,5R-OH)]T[Hyp][hTyr(3S-OH,4S-OH)]T[Pro(3S-OH,4S-Me)]; lactam 1-C)
MIC (Candida albicans v47a3; V47A3, read-out: MICs): 0.03 µg/mL (≈ 0.0263 µM)

O=C1c2c(O)ccc(O)c2C(=O)c2c(NCCNCCO)ccc(NCCNCCO)c21 [mitoxantrone]
efflux ratio (ER) (Caco-2 cells): > 10

C[C@@H]1[C@H](O)[C@@H](C)/C=C/C=C/C=C/C=C/C=C/C=C/C=C/[C@H](O[C@@H]2O[C@H](C)[C@@H](O)[C@H](N)[C@@H]2O)C[C@@H]2O[C@](O)(C[C@@H](O)C[C@@H](O)[C@H](O)CC[C@@H](O)C[C@@H](O)CC(=O)O[C@H]1C)C[C@H](O)[C@H]2C(=O)O [Amphotericin B]
MIC (Candida albicans v47a3; V47A3, MIC = >90% inhibition of fungal growth, broth dilution according to EUCAST E.DEF 7.3.2, read-out: MICs): 0.5 µg/mL (≈ 0.541 µM)

C[C@@H](c1ncncc1F)[C@](O)(Cn1cncn1)c1ccc(F)cc1F [Voriconazole]
MIC (Candida albicans v47a3; [2]): 0.5 µg/mL (≈ 1.43 µM)

CC[C@H](C)C[C@H](C)CCCCCCCCC(=O)N[C@H]1C[C@@H](O)[C@@H](NCCN)NC(=O)[C@@H]2[C@@H](O)CCN2C(=O)[C@H]([C@H](O)CCN)NC(=O)[C@H]([C@H](O)[C@@H](O)c2ccc(O)cc2)NC(=O)[C@@H]2C[C@@H](O)CN2C(=O)[C@H]([C@@H](C)O)NC1=O [Caspofungin]
MIC (Candida albicans v47a3; V47A3, read-out: MICs): 0.06 µg/mL (≈ 0.0549 µM)

Nc1[nH]c(=O)ncc1F [Flucytosine]
MIC (Candida albicans v47a3; [2]): ≤ 0.06 µg/mL

OC(Cn1cncn1)(Cn1cncn1)c1ccc(F)cc1F [Fluconazole]
MIC (Candida albicans v47a3; [2]): 8 µg/mL (≈ 26.1 µM)

CC[C@@H]([C@H](C)O)n1ncn(-c2ccc(N3CCN(c4ccc(OC[C@@H]5CO[C@@](Cn6cncn6)(c6ccc(F)cc6F)C5)cc4)CC3)cc2)c1=O [Posaconazole]
MIC (Candida albicans v47a3; [2]): 0.12 µg/mL (≈ 0.171 µM)

CC[C@]1(O)C[C@@H]2CN(CCc3c([nH]c4ccccc34)[C@@](C(=O)OC)(c3cc4c(cc3OC)N(C)[C@H]3[C@@](O)(C(=O)OC)[C@H](OC(C)=O)[C@]5(CC)C=CCN6CC[C@]43[C@@H]65)C2)C1 [vinblastine]
efflux ratio (ER) (Caco-2 cells): > 10

melittin [reference compound]
IC50 [1]: 6.25 µM

CCC(C)n1ncn(-c2ccc(N3CCN(c4ccc(OCC5COC(Cn6cncn6)(c6ccc(Cl)cc6Cl)O5)cc4)CC3)cc2)c1=O (stereo not shown) [Itraconazole]
MIC (Candida albicans v47a3; [2]): 0.12 µg/mL (≈ 0.17 µM)

From publication PMC10178127, “Immunomodulatory Effects of the Pea Defensin Psd1 in the Caco-2/Immune Cells Co-Culture upon Candida albicans Infection” (International Journal of Molecular Sciences, 2023)
